Results published in article PMC3368247 (Frontiers in Pharmacology, 2012).
Like-named read-outs stand apart in the source and are kept apart here. One block for each compound: values may come before it.

Columns and labels:
Cx50 GJ channels = Cx50 GJ channels (Mus musculus, UniProt P28236); format: cell-based; details: for effect on Cx50 junctional current: 10 μM; for IC50 Cx50 (μM): Table A1, alcohols, amines, nitriles and ureas; for Hill slope / Hill coefficient of Cx50 inhibition: fit to the Hill equation
Chain of Cx50 GJ channels (P28236 whole entry): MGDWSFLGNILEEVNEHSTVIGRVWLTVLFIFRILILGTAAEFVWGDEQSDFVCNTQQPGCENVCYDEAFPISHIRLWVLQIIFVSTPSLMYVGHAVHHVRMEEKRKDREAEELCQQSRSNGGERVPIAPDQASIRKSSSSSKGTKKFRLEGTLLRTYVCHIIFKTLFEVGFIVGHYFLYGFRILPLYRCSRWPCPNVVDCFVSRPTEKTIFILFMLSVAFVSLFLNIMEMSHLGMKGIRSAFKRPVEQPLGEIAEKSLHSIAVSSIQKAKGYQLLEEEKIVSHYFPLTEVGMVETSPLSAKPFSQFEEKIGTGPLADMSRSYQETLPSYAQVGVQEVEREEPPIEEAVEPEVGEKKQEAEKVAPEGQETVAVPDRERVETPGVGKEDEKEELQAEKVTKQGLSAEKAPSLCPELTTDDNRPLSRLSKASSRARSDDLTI

Cx32 GJ channels = Cx32 GJ channels (Rattus norvegicus, UniProt P08033); experiment: Cx32 junctional current, dual whole-cell voltage-clamp in N2A cells; format: cell-based; details: 10 μM
Chain of Cx32 GJ channels (P08033 whole entry): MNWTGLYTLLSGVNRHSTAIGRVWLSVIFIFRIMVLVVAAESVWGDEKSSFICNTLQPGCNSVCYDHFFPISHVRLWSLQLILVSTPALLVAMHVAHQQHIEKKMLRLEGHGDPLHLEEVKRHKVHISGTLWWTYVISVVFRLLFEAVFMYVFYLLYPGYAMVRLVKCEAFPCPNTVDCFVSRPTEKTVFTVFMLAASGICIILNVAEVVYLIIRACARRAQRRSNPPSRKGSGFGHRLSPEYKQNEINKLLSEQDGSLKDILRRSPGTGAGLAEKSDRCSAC

Cx46 GJ channels = Cx46 GJ channels (Rattus norvegicus, UniProt P29414); experiment: Cx46 junctional current, dual whole-cell voltage-clamp in N2A cells; format: cell-based; details: 10 μM
[1] = molecular target: channels built out of Cx36 (Homo sapiens, UniProt Q9UKL4); experiment: Cx36 junctional current, dual whole-cell patch-clamp; format: cell-based; details: 10 μM
hKCa3.1 = hKCa3.1 (Homo sapiens, UniProt O15554); experiment: KCa3.1 current, whole-cell patch-clamp; format: cell-based
Chain of hKCa3.1 (O15554 whole entry): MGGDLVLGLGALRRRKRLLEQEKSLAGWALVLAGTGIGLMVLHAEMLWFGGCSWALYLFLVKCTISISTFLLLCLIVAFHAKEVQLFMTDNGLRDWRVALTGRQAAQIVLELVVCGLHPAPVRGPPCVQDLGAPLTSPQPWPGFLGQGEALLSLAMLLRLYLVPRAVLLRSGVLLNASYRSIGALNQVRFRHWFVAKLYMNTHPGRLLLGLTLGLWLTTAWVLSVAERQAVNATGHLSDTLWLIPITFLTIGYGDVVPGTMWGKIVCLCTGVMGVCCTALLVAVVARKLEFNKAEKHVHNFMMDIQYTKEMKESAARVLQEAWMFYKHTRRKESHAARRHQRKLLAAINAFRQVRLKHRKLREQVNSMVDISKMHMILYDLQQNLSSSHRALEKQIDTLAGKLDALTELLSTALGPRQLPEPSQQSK

Kv7.2/7.3 = Kv7.2/7.3 (Homo sapiens, UniProt O43525+O43526); experiment: Kv7.2/7.3 current, whole-cell patch-clamp; format: cell-based; details: 10 μM
Cx26 GJ channels = Cx26 GJ channels (Rattus norvegicus, UniProt P21994); experiment: Cx26 junctional current, dual whole-cell voltage-clamp in N2A cells; format: cell-based; details: 10 μM
[2] = molecular target: Cx45 gap junction channels (Homo sapiens, UniProt P36383); experiment: Cx45 junctional current, dual whole-cell voltage-clamp; format: cell-based; details: 10 μM
Chain of Cx45 gap junction channels (P36383 whole entry): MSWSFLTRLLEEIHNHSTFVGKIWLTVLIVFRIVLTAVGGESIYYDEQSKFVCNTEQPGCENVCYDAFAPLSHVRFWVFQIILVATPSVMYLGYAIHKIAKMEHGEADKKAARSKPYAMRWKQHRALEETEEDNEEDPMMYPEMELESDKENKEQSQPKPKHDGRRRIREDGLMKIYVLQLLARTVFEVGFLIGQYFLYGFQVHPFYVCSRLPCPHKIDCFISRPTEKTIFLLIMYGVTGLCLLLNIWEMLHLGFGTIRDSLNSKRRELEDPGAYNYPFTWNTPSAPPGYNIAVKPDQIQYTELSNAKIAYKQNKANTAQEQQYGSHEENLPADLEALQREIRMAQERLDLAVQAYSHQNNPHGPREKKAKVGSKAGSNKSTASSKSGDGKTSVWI

sodium channels = experiment: Summary of block of the tested sodium channels; format: cell-based; details: 10 μM; summary in discussion
Kv1.3 = Kv1.3 (Mus musculus, UniProt P16390); experiment: Kv1.3 current, whole-cell patch-clamp; format: cell-based; details: read-out: Percentage of current inhibition, Kv1.3
Kv2.1 = Kv2.1 (Homo sapiens, UniProt Q14721); experiment: Kv2.1 current, whole-cell patch-clamp; format: cell-based; details: read-out: Percentage of current inhibition, Kv2.1
Chain of Kv2.1 (Q14721 whole entry): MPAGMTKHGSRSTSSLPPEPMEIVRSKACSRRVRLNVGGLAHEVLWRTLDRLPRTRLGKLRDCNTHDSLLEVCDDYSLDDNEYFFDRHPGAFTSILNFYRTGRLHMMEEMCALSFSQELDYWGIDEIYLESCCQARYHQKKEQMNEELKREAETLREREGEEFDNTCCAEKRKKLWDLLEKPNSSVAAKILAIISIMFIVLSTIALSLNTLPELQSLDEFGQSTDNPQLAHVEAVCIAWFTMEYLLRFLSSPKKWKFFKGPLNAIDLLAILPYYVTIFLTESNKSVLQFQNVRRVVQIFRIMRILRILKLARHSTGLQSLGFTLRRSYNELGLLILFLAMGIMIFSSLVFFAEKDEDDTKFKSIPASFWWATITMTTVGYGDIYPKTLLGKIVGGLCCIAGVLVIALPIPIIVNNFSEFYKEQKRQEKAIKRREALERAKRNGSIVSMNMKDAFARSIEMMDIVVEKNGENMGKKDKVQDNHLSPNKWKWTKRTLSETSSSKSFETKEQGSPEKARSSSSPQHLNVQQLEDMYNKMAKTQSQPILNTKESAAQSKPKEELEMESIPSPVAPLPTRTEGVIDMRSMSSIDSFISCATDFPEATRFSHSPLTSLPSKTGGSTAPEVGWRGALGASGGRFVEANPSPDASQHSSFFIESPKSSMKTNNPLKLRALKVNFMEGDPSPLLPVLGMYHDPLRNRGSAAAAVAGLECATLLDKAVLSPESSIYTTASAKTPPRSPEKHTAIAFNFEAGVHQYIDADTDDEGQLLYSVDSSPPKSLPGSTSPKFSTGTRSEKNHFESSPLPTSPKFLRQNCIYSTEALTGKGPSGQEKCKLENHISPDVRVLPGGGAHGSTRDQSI

Kv1.1 = Kv1.1 (Mus musculus, UniProt P16388); experiment: Kv1.1 current, whole-cell patch-clamp; format: cell-based; details: read-out: Percentage of current inhibition, Kv1.1
Kv4.2 = Kv4.2 (Rattus norvegicus, UniProt Q63881); experiment: Kv4.2 current, whole-cell patch-clamp; format: cell-based; details: read-out: Percentage of current inhibition, Kv4.2
Chain of Kv4.2 (Q63881 whole entry): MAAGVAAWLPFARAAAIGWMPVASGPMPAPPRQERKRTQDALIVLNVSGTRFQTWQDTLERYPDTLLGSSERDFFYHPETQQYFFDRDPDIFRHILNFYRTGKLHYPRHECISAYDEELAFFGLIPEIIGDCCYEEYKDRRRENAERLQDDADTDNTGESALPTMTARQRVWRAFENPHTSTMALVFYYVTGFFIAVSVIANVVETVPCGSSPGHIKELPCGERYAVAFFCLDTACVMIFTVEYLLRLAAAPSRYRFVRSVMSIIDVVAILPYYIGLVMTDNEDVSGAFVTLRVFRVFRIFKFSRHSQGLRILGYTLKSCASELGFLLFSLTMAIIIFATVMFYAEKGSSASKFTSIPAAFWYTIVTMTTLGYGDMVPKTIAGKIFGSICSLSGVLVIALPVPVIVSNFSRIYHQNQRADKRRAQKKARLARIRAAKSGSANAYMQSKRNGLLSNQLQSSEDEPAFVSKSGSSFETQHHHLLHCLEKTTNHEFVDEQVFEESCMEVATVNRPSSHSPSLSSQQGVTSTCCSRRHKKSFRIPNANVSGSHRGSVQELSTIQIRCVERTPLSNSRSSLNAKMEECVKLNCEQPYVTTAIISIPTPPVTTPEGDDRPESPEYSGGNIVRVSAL

[3] = system: primary lens epithelial cells; experiment: Junctional currents between primary lens epithelial cells; format: cell-based, mouse; details: 10 μM; for reduction of junctional currents in lens epithelial cells, % of the initial conductance: mouse lenses postnatal day 6, means ± SEM
potassium channels = experiment: Summary of block of the tested potassium channels; format: cell-based; details: 10 μM; summary in discussion
Kv3.1 = Kv3.1 (Mus musculus, UniProt P15388); experiment: Kv3.1 current, whole-cell patch-clamp; format: cell-based; details: read-out: Percentage of current inhibition, Kv3.1
Nav1.4 = Nav1.4 (Homo sapiens, UniProt P35499); experiment: Nav1.4 current, whole-cell patch-clamp; format: cell-based; details: 10 μM
Nav1.2 = Nav1.2 (Mus musculus, UniProt B1AWN6); experiment: Nav1.2 current in N1E-115 cells, whole-cell patch-clamp; format: cell-based; details: N1E-115, read-out: Percentage of current inhibition, Nav1.2
Chain of Nav1.2 (B1AWN6 whole entry): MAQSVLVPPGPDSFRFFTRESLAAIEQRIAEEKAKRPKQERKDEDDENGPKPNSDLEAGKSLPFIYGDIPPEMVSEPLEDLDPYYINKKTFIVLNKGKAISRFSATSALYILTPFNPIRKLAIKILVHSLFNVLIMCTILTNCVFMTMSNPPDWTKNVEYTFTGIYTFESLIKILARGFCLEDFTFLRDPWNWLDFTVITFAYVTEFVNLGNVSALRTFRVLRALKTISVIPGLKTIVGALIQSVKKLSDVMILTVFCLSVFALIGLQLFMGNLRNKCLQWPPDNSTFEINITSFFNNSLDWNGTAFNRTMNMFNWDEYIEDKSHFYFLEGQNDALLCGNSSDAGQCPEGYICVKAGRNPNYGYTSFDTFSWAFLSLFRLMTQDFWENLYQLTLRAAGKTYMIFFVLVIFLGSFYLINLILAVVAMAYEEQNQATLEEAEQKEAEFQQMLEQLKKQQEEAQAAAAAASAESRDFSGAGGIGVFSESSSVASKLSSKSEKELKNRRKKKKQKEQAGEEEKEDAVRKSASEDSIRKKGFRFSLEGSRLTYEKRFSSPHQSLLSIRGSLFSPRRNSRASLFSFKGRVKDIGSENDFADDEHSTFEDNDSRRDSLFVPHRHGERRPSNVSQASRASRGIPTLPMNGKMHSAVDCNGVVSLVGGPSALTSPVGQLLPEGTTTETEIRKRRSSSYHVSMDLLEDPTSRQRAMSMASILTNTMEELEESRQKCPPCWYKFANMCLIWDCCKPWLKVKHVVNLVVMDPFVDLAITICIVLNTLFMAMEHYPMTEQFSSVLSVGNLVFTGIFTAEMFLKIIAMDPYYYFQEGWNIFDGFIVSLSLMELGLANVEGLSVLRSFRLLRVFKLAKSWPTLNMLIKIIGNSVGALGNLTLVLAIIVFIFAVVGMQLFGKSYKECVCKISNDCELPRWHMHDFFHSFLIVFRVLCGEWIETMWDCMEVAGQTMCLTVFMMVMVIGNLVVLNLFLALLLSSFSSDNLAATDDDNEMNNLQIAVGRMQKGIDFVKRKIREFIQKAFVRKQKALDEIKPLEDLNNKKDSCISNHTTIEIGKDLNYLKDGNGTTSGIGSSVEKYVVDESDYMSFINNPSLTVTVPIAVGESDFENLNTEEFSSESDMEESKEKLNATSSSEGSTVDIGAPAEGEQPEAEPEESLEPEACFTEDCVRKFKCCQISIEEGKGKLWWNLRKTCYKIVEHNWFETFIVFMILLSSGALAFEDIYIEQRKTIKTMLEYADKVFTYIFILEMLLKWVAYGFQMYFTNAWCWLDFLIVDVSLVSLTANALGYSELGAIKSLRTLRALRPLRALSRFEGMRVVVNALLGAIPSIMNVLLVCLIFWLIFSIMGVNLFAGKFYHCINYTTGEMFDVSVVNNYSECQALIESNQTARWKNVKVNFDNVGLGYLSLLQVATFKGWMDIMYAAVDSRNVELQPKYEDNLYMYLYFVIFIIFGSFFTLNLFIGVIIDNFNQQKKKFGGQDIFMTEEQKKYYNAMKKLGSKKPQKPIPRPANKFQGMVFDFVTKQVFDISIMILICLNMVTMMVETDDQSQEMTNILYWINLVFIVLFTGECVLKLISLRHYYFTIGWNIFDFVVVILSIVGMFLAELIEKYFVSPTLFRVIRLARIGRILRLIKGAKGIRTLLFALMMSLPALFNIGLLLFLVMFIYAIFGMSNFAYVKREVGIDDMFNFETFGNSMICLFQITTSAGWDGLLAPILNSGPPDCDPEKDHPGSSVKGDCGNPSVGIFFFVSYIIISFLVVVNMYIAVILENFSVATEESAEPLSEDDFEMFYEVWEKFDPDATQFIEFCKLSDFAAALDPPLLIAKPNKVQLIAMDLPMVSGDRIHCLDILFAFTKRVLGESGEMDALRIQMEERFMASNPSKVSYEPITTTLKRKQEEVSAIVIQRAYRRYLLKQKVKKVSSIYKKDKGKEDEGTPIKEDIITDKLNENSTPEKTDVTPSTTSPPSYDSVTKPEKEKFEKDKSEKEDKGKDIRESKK

KCa2.3 = KCa2.3 current, whole-cell patch-clamp; format: cell-based, human; details: 10 μM
KCa1.1 (BK) = KCa1.1 (BK) (Homo sapiens, UniProt Q12791); experiment: KCa1.1; format: cell-based; details: read-out: Percentage of current inhibition, KCa1.1 (BK)
Kv11.1 (hERG) = Kv11.1 (hERG) (Homo sapiens, UniProt Q12809); experiment: Kv11.1; format: cell-based; details: HEK-293 cells stably expressing Kv11.1 (hERG)
[4] = system: voltage-gated Ca^2+ currents; details: read-out: IC50, voltage-gated Ca2+ currents; ref Vessey et al., 2004; cited from earlier work
Cx38 hemichannel = details: read-out: IC50, Cx38 hemichannel currents; Xenopus oocytes; literature value; cited from earlier work
[5] = molecular target: 11β-hydroxysteroid dehydrogenase; details: read-out: IC50, 11β-hydroxysteroid dehydrogenase; ref Monder et al., 1989; cited from earlier work
Cx26 hemichannel = details: read-out: IC50, Cx26 hemichannel currents; Xenopus oocytes; literature value; cited from earlier work
P2x7 receptors = details: read-out: IC50, P2x7 receptors; ref Suadicani et al., 2006; cited from earlier work
pannexin channels = details: read-out: IC50, pannexin channels; ref Locovei et al., 2007; cited from earlier work
[6] = IC50 KCa3.1, Table 1, mean ± SD

IC50 (Cx50 GJ channels): 2.8 µM | IC50 (hKCa3.1; IC50 KCa3.1 (μM), Table A1): 0.53 µM
Structure (SMILES): OC(c1ccccc1)(c1ccccc1)c1ccc(Cl)cc1 [T1, (4-Chlorophenyl)diphenylmethanol]

IC50 (Cx50 GJ channels): 3.6 µM | IC50 (hKCa3.1; IC50 KCa3.1 (μM), Table A1): 0.55 µM
Structure (SMILES): OC(c1ccccc1)(c1ccccc1)c1cccc(Cl)c1 [T2, (3-Chlorophenyl)diphenylmethanol]

IC50 Cx50 (μM) (Cx50 GJ channels): No effect | IC50 (hKCa3.1; IC50 KCa3.1 (μM), Table A1): 25 µM
Structure (SMILES): O=C(O)CC(c1ccccc1)(c1ccccc1)c1ccccc1 [T51, 3,3,3-triphenylpropionic acid]

effect on Cx50 junctional current (Cx50 GJ channels): no effect
Structure (SMILES): FC(F)(F)Oc1cccc(NC(c2ccccc2)(c2ccccc2)c2ccccc2Cl)c1 [T102, N-[(2-Chlorophenyl)diphenylmethyl]-3-(trifluoromethoxy)aniline]

effect on Cx50 junctional current (Cx50 GJ channels): no effect
Structure (SMILES): FC(F)(F)Oc1ccccc1NC(c1ccccc1)(c1ccccc1)c1ccccc1Cl [T104, N-[(2-Chlorophenyl)diphenylmethyl]-2-(trifluoromethoxy)aniline]

IC50 (Cx50 GJ channels): 10 µM
Structure (SMILES): COc1ccc(NC(c2ccccc2)(c2ccccc2)c2ccccc2Cl)cc1 [T106, N-[(2-Chlorophenyl)diphenylmethyl]-4-methoxyaniline]

effect on Cx50 junctional current (Cx50 GJ channels): no effect
Structure (SMILES): Clc1ccccc1C(Oc1ccccc1)(c1ccccc1)c1ccccc1 [T107, 1-Chloro-2-(phenoxydiphenylmethyl)benzene]

effect on Cx50 junctional current (Cx50 GJ channels): no effect
Structure (SMILES): Clc1ccccc1C(Nc1ccccc1)(c1ccccc1)c1ccccc1 [T109, N-[(2-Chlorophenyl)diphenylmethyl]aniline]

IC50 Cx50 (μM) (Cx50 GJ channels): No effect
Structure (SMILES): COc1ccccc1C(O)(c1ccccc1)c1ccccc1 [T117, (2-Methoxyphenyl)diphenylmethanol]

IC50 (Cx50 GJ channels): 1.2 µM | selectivity over other connexins as well as major neuronal and cardiac voltage-gated K+ and Na+ channels (Cx50 GJ channels): at least 10 fold | Hill slope / Hill coefficient of Cx50 inhibition (Cx50 GJ channels): 1.6 | Percentage of current inhibition, Kv7.2/7.3 (Kv7.2/7.3): No effect (n = 3) | inhibition of Cx26 GJ channel current / reduction of junction conductance (Cx26 GJ channels): no significant effect | effect on Cx45 gap junction channels [2]: no significant effect | inhibition at 10 µM (Kv1.3): 52 ± 2% | inhibition of Cx32 GJ channel current / reduction of junction conductance (Cx32 GJ channels): no significant effect | inhibition at 10 µM (Kv2.1): 28 ± 4% | inhibition at 10 µM (Kv1.1): 65 ± 10% | inhibition at 10 µM (Kv4.2): 16 ± 4% | IC50 (hKCa3.1; [6]): 10.2 µM | IC50 (hKCa3.1; IC50 KCa3.1, running text): 10 µM | inhibition at 10 µM (Kv3.1): 32 ± 12% | Percentage of current inhibition, Nav1.4 (Nav1.4): No effect (n = 3) | inhibition at 10 µM (Nav1.2): 11 ± 1% | inhibition at 10 µM (KCa1.1 (BK)): 43 ± 4%
Structure (SMILES): COc1ccccc1C(Nc1nccs1)(c1ccccc1)c1ccccc1 [T122, N-[(2-Methoxyphenyl)diphenylmethyl]-1,3-thiazol-2-amine]
inhibition of sodium channels (sodium channels): < 11% | reversibility of reduction of junctional currents on washout [3]: reversible | reduction of junctional currents in lens epithelial cells, % of the initial conductance [3]: 67 ± 9% | inhibition of most of the tested potassium channels (potassium channels): 18–43% | Percentage of current inhibition, KCa2.3 (KCa2.3): No effect (n = 3) | inhibition at 10 µM (Kv11.1 (hERG)): 42 ± 3%

IC50 (Cx50 GJ channels): 2.4 µM | selectivity over other connexins as well as major neuronal and cardiac voltage-gated K+ and Na+ channels (Cx50 GJ channels): at least 10 fold | Hill slope / Hill coefficient of Cx50 inhibition (Cx50 GJ channels): 1.7 | Percentage of current inhibition, Kv7.2/7.3 (Kv7.2/7.3): No effect (n = 2) | inhibition of Cx26 GJ channel current / reduction of junction conductance (Cx26 GJ channels): no significant effect | effect on Cx45 gap junction channels [2]: no significant effect | inhibition at 10 µM (Kv1.3): 18 ± 4% | inhibition of Cx32 GJ channel current / reduction of junction conductance (Cx32 GJ channels): no significant effect | inhibition at 10 µM (Kv2.1): 28 ± 4% | inhibition at 10 µM (Kv1.1): 28 ± 9% | inhibition at 10 µM (Kv4.2): 15 ± 3% | IC50 (hKCa3.1; [6]): 1.3 µM | inhibition at 10 µM (Kv3.1): 37 ± 16% | Percentage of current inhibition, Nav1.4 (Nav1.4): No effect (n = 3) | inhibition at 10 µM (Nav1.2): 9 ± 0.5% | inhibition at 10 µM (KCa1.1 (BK)): 26 ± 2%
Structure (SMILES): Ic1ccccc1C(Nc1nccs1)(c1ccccc1)c1ccccc1 [T136, N-[(2-Iodophenyl)diphenylmethyl]-1,3-thiazol-2-amine]
inhibition of sodium channels (sodium channels): < 11% | reversibility of reduction of junctional currents on washout [3]: reversible | reduction of junctional currents in lens epithelial cells, % of the initial conductance [3]: 64 ± 8% | inhibition of most of the tested potassium channels (potassium channels): 18–43% | Percentage of current inhibition, KCa2.3 (KCa2.3): No effect (n = 3) | inhibition at 10 µM (Kv11.1 (hERG)): 27 ± 4%

effect on Cx50 junctional current (Cx50 GJ channels): no effect
Structure (SMILES): FC(F)(F)Oc1ccc(NC(c2ccccc2)(c2ccccc2)c2ccccc2Cl)cc1 [T150, N-[(2-Chlorophenyl)diphenylmethyl]-4-(trifluoromethoxy)aniline]

IC50 Cx50 (μM) (Cx50 GJ channels): No effect
Structure (SMILES): COc1ccccc1C(O)(c1ccccc1)c1ccccc1OC [T165, Bis-(2-methoxyphenyl)(phenyl)methanol]

Further lines, the compound ahead of its results:

Structure (SMILES): COc1ccc(CCN2CCC(Nc3nc4ccccc4n3Cc3ccc(F)cc3)CC2)cc1 [Astemizole, reference compound]
reversibility of inhibition of Cx50 junctional currents upon washout (Cx50 GJ channels): completely reversible | effect on Cx50 junctional current (Cx50 GJ channels): significant inhibition

Structure (SMILES): Clc1ccccc1C(c1ccccc1)(c1ccccc1)n1ccnc1 [Clotrimazole]
inhibition of Cx32 GJ channel current / reduction of junction conductance (Cx32 GJ channels): no effect | inhibition of Cx46 GJ channel current / reduction of junction conductance (Cx46 GJ channels): no effect | effect on channels built out of Cx36 [1]: no effect

Structure (SMILES): OC(c1ccccc1)(c1ccccc1)c1ccncc1 [T50, diphenyl-4-pyridylmethanol]
IC50 (Cx50 GJ channels): 10 µM | IC50 (hKCa3.1): > 50 µM

Structure (SMILES): Nc1ccccc1C(O)(c1ccccc1)c1ccccc1 [T154-OH, (2-Aminophenyl)diphenylmethanol]
IC50 Cx50 (μM) (Cx50 GJ channels): No effect

Structure (SMILES): c1ccc(C(c2ccccc2)c2ccncc2)cc1 [T160, diphenyl-4-pyridylmethane]
IC50 (Cx50 GJ channels): 4 µM | IC50 (hKCa3.1): 8.6 µM

Structure (SMILES): c1ccc(C(c2ccccc2)c2ccccc2)cc1 [Triphenylmethane, triphenylmethane]
IC50 (Cx50 GJ channels): 0.9 µM | IC50 (hKCa3.1; IC50 KCa3.1 (μM), Table A1): 3.7 µM

Structure (SMILES): OC(c1ccccc1)(c1ccccc1)c1ccccc1 [Triphenylmethanol, triphenylmethanol]
IC50 (Cx50 GJ channels): 1 µM | IC50 (hKCa3.1; IC50 KCa3.1 (μM), Table A1): 0.5 µM

Structure (SMILES): CC1(C)[C@@H](OC(=O)CCC(=O)O)CC[C@]2(C)[C@H]3C(=O)C=C4[C@@H]5C[C@@](C)(C(=O)O)CC[C@]5(C)CC[C@@]4(C)[C@]3(C)CC[C@@H]12 [carbenoxolone]
IC50 [4]: 48 µM | IC50 (Cx38 hemichannel): 34 µM | IC50 [5]: ~5 µM | IC50 (Cx26 hemichannel): 21 µM | IC50 (P2x7 receptors): 0.175 µM | IC50 (pannexin channels): 2 to 5 µM

Structure (SMILES): O=c1c(O)c(-c2ccc(O)c(O)c2)oc2cc(O)cc(O)c12 [quercetin, reference compound]
effect on Cx50 junctional current (Cx50 GJ channels): no effect

Structure (SMILES): C[C@@H]1O[C@@H](OC[C@H]2O[C@@H](Oc3c(-c4ccc(O)c(O)c4)oc4cc(O)cc(O)c4c3=O)[C@H](O)[C@@H](O)[C@@H]2O)[C@H](O)[C@H](O)[C@H]1O [rutin, reference compound]
reversibility of inhibition of Cx50 junctional currents upon washout (Cx50 GJ channels): only partially reversible | effect on Cx50 junctional current (Cx50 GJ channels): significant inhibition
